Measurements reported in US20240408169A1 (priority 2023, published 2024).
*1 amine or outer side, *2 acyl side, *3 side chain or, on linkers, in order; H or OH if unused. Where a SMILES comes first, the peptide text is derived from it. Bridges are numbered along the chain shown (N, C = ends). [ ]: non-standard residue; d: D form. The star is where a group is joined. X42 = CN([C@@H](Cc1cc(Cl)ccc1-c1cnn(S(=O)(=O)C2CC2)c1)C(=O)[*:2])[*:1]; X167 = CN([C@@H](Cc1cc(F)ccc1C1=CCN(S(C)(=O)=O)CC1)C(=O)[*:2])[*:1]; X136 = CN1CCOc2cc(-c3ccc(Cl)cc3C[C@@H](C(=O)[*:2])N(C)[*:1])ccc21; X192 = COc1cccc(-c2ccc(Cl)cc2C[C@@H](C(=O)[*:2])N(C)[*:1])c1; NMehhhLys(Me) = CN([C@@H](CCCCCCCN(C)[*:3])C(=O)[*:2])[*:1]; X117 = Cc1cc(-c2ccc(F)cc2C[C@@H](C(=O)[*:2])N(C)[*:1])cnn1; X174 = CN([C@@H](Cc1cc(Cl)cnc1-c1cnn(C)c1)C(=O)[*:2])[*:1]; Cyclobutanecarbonyl(1-CF3) = O=C(C1(C(F)(F)F)CCC1)*; cBuCO(3,3-F2-1-CF3) = O=C(C1(C(F)(F)F)CC(F)(F)C1)*; X173 = CN([C@@H](Cc1cc(Cl)cs1)C(=O)[*:2])[*:1]; Pro(trans-4-F) = O=C(O)[C@@H]1C[C@@H](F)CN1; Gly(cPr) = N[C@H](C(=O)O)C1CC1

Columns and labels:
CyclinE1/CDK2 = biological target: T1, CyclinE1/CDK2 (Homo sapiens, UniProt P24864); experiment: Fluorescence Polarization (FP) competitive binding assay, Cyclin E1/Cdk2; details: 10 nM Cyclin E1/Cdk2, 2 nM FAM probe; average of 2-3 independent experiments; read-out: Cyclin E FP IC50;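 further: readings taken after two-hour equilibration at room temperature in HEPES buffer with NaCl, DTT, NP-40 and BSA, IC50 fitted from eight-concentration serial dilution series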
T1 construct: purchased Eurofins, discovery 14-475

NCI-H1048 cells = experiment: MTT proliferation assay, NCI-H1048; type: cell-based; details: 5 days compound exposure, 1:3 serial dilution starting at 10 μM;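 further: Dose-response in 96-well plates over 8 or 10 concentration points, with exposure spanning 3-4 cell doublings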
CyclinB1/CDK1 = biological target: T2, CyclinB1/CDK1 (Homo sapiens, UniProt P14635); experiment: Fluorescence Polarization (FP) competitive binding assay, Cyclin B1/Cdk1; details: 10 nM Cyclin B1/Cdk1, 2 nM FAM probe; average of 2-3 independent experiments; read-out: Cyclin B FP IC50;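 further: fluorescence polarization read after equilibration at room temperature, with IC50 taken from serially diluted dose-response curves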
T2 construct: purchased Eurofins, discovery 14-450

CyclinA2/CDK2 = biological target: T3, CyclinA2/CDK2 (Homo sapiens, UniProt P20248); experiment: Fluorescence Polarization (FP) competitive binding assay, Cyclin A2/Cdk2; details: 8 nM Cyclin A2/Cdk2, 2 nM FAM probe; average of 2-3 independent experiments; read-out: Cyclin A FP IC50;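 further: plates equilibrated two hours at room temperature before polarization reading, IC50 fitted from eight-concentration compound titration curves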
T3 construct: purchased CRELUX Protein Services

OVCAR3 cells = experiment: MTT proliferation assay, OVCAR3; type: cell-based; details: 5 days compound exposure, 1:3 serial dilution starting at 10 μM;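 further: compound given as an 8- or 10-point series, one day after plating, with exposure covering roughly 3-4 cell doublings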

Molecule CC(C)C[C@@H]1NC(=O)[C@@H](N(C)C(=O)[C@@H](NC(=O)[C@@H]2C[C@@H](F)CN2C(=O)C2(C(F)(F)F)CCC2)C2CC2)CCCCCCCN(C)C(=O)[C@H](Cc2cc(Cl)cnc2-c2cnn(C)c2)N(C)C1=O [Example 247] ({Cyclobutanecarbonyl(1-CF3)}-[Pro(trans-4-F)][Gly(cPr)][NMehhhLys(Me)]L[X174]; lactam 3-C) has an IC50 (CyclinE1/CDK2) of 310 nM, a GI50 (NCI-H1048 cells) of 50 nM and an IC50 (CyclinB1/CDK1) of 20 nM. The IC50 (CyclinA2/CDK2) was 20 nM and the GI50 (OVCAR3 cells) was 40 nM.

For CC(=O)N1CC=C(c2ccc(Cl)cc2C[C@H]2C(=O)N(C)CCCCC=CC[C@H](N(C)C(=O)[C@@H](NC(=O)[C@@H]3C[C@@H](F)CN3C(=O)C3(C(F)(F)F)CC(F)(F)C3)C3CC3)C(=O)N[C@@H](CC(C)C)C(=O)N2C)CC1 [Example 31], the IC50 (CyclinE1/CDK2) was 2200 nM, the GI50 (NCI-H1048 cells) was 80 nM and the IC50 (CyclinB1/CDK1) was 20 nM. It also gave an IC50 (CyclinA2/CDK2) of 30 nM and a GI50 (OVCAR3 cells) of 150 nM.

For CC(C)C[C@@H]1NC(=O)[C@@H](N(C)C(=O)[C@@H](NC(=O)[C@@H]2C[C@@H](F)CN2C(=O)C2(C(F)(F)F)CC(F)(F)C2)C2CC2)CCCCCCCN(C)C(=O)[C@H](Cc2cc(Cl)cs2)N(C)C1=O [Example 426] ({cBuCO(3,3-F2-1-CF3)}-[Pro(trans-4-F)][Gly(cPr)][NMehhhLys(Me)]L[X173]; lactam 3-C), the IC50 (CyclinE1/CDK2) was 2060 nM, the GI50 (NCI-H1048 cells) was 90 nM and the IC50 (CyclinB1/CDK1) was 20 nM. The IC50 (CyclinA2/CDK2) was 110 nM and the GI50 (OVCAR3 cells) was 150 nM.

For COc1cccc(-c2ccc(Cl)cc2C[C@H]2C(=O)N(C)CCCCCCC[C@H](N(C)C(=O)[C@@H](NC(=O)[C@@H]3C[C@@H](F)CN3C(=O)C3(C(F)(F)F)CC(F)(F)C3)C3CC3)C(=O)N[C@@H](CC(C)C)C(=O)N2C)c1 [Example 197] ({cBuCO(3,3-F2-1-CF3)}-[Pro(trans-4-F)][Gly(cPr)][NMehhhLys(Me)]L[X192]; lactam 3-C), the IC50 (CyclinE1/CDK2) was 310 nM, the GI50 (NCI-H1048 cells) was 50 nM and the IC50 (CyclinB1/CDK1) was 20 nM. It also gave an IC50 (CyclinA2/CDK2) of 20 nM and a GI50 (OVCAR3 cells) of 100 nM.

With CC(C)C[C@@H]1NC(=O)[C@@H](N(C)C(=O)[C@@H](NC(=O)[C@@H]2C[C@@H](F)CN2C(=O)C2(C(F)(F)F)CC(F)(F)C2)C2CC2)CCCCCCCN(C)C(=O)[C@H](Cc2cc(Cl)ccc2-c2cnn(S(=O)(=O)C3CC3)c2)N(C)C1=O [Example 254] ({cBuCO(3,3-F2-1-CF3)}-[Pro(trans-4-F)][Gly(cPr)][NMehhhLys(Me)]L[X42]; lactam 3-C) the IC50 (CyclinE1/CDK2) was 970 nM, the GI50 (NCI-H1048 cells) was 20 nM and the IC50 (CyclinB1/CDK1) was 20 nM. The IC50 (CyclinA2/CDK2) was 30 nM and the GI50 (OVCAR3 cells) was 20 nM.

Molecule CC(C)C[C@@H]1NC(=O)[C@@H](N(C)C(=O)[C@@H](NC(=O)[C@@H]2C[C@@H](F)CN2C(=O)C2(C(F)(F)F)CC(F)(F)C2)C2CC2)CC=CCCCCNC(=O)[C@H](Cc2cc(F)cnc2OC2CC2)N(C)C1=O [Example 125] has an IC50 (CyclinE1/CDK2) of 1140 nM, a GI50 (NCI-H1048 cells) of 490 nM and an IC50 (CyclinB1/CDK1) of 20 nM. It also gave an IC50 (CyclinA2/CDK2) of 1010 nM and a GI50 (OVCAR3 cells) of 550 nM.

For CC(C)C[C@@H]1NC(=O)[C@@H](N(C)C(=O)[C@@H](NC(=O)[C@@H]2C[C@@H](F)CN2C(=O)C2(C(F)(F)F)CC(F)(F)C2)C2CC2)CCCCCCCN(C)C(=O)[C@H](Cc2cc(Cl)ccc2-c2ccc3c(c2)OCCN3C)N(C)C1=O [Example 342] ({cBuCO(3,3-F2-1-CF3)}-[Pro(trans-4-F)][Gly(cPr)][NMehhhLys(Me)]L[X136]; lactam 3-C), the IC50 (CyclinE1/CDK2) was 590 nM, the GI50 (NCI-H1048 cells) was 10 nM and the IC50 (CyclinB1/CDK1) was 20 nM. It also gave an IC50 (CyclinA2/CDK2) of 20 nM and a GI50 (OVCAR3 cells) of 10 nM.

For Cc1cc(-c2ccc(F)cc2C[C@H]2C(=O)N(C)CCCCCCC[C@H](N(C)C(=O)[C@@H](NC(=O)[C@@H]3C[C@@H](F)CN3C(=O)C3(C(F)(F)F)CC(F)(F)C3)C3CC3)C(=O)N[C@@H](CC(C)C)C(=O)N2C)cnn1 [Example 293] ({cBuCO(3,3-F2-1-CF3)}-[Pro(trans-4-F)][Gly(cPr)][NMehhhLys(Me)]L[X117]; lactam 3-C), the IC50 (CyclinE1/CDK2) was 1990 nM, the GI50 (NCI-H1048 cells) was 50 nM and the IC50 (CyclinB1/CDK1) was 20 nM. The IC50 (CyclinA2/CDK2) was 100 nM and the GI50 (OVCAR3 cells) was 90 nM.

CC(C)C[C@@H]1NC(=O)[C@@H](N(C)C(=O)[C@@H](NC(=O)[C@@H]2C[C@@H](F)CN2C(=O)C2(C(F)(F)F)CC(F)(F)C2)C2CC2)CCCCCCCN(C)C(=O)[C@H](Cc2cc(F)ccc2C2=CCN(S(C)(=O)=O)CC2)N(C)C1=O [Example 100] ({cBuCO(3,3-F2-1-CF3)}-[Pro(trans-4-F)][Gly(cPr)][NMehhhLys(Me)]L[X167]; lactam 3-C) gave an IC50 (CyclinE1/CDK2) of 450 nM, a GI50 (NCI-H1048 cells) of 20 nM and an IC50 (CyclinB1/CDK1) of 20 nM. For the same molecule, the IC50 (CyclinA2/CDK2) was 20 nM and the GI50 (OVCAR3 cells) was 20 nM.
